US20080069809A1, “Compositions and methods for the diagnosis and treatment of cancer” (priority 2006, published 2008)

How the values were obtained:
NB4 = experiment: Apoptosis (sub-G1 DNA by FACS) in NB4 leukemic cells; format: cell-based
Description: The myeloid leukemic cell lines HL60, NB60, NB4, U937, K562 and KG1a were all grown in RPMI 1640 medium (Life Technologies, Paisley, United Kingdom) supplemented with 10% v/v fetal calf serum (Sear Laboratories International Crawley, United Kingdom), 100 U/mL penicillin, and 100 μg/mL streptomycin (Sigma Aldrich, Poole, United Kingdom) at 37° C. and 5% v/v CO2. AML blasts were isolated from patient bone marrow aspirates and peripheral blood of eight patients at diagnosis or relapse. Patients were not receiving AML therapy at time of sampling. Blasts were isolated by Ficoll density centrifugation and were cultured in serum-free insulin transferrin selenium-positive (ITS+) medium (Life Technologies) containing 300 ng/mL stem cell factor (SCF) and 10 ng/mL interleukin 3 (IL3; R and D Systems, Abingdon, United Kingdom) and antibiotics. […] Normal myeloblasts were isolated from cord blood or adult mobilized peripheral blood. Briefly, CD34^+ cells were indirectly selected from the mononuclear cell preparations using antibody-coated magnetic beads (Miltenyi Biotec, United Kingdom).
To determine the effects of ingenol-3-angelate (PEP005), cells were incubated for up to 5 days with medium alone or PEP005 at a range of concentrations from 0.2 nM to 20 μM. […] Apoptosis and differentiation were assessed after 1 to 5 days.

HL60 = experiment: Differentiation (CD11b expression) in HL60 cells; format: cell-based
Description: The myeloid leukemic cell lines HL60, NB60, NB4, U937, K562 and KG1a were all grown in RPMI 1640 medium (Life Technologies, Paisley, United Kingdom) supplemented with 10% v/v fetal calf serum (Sear Laboratories International Crawley, United Kingdom), 100 U/mL penicillin, and 100 μg/mL streptomycin (Sigma Aldrich, Poole, United Kingdom) at 37° C. and 5% v/v CO2. AML blasts were isolated from patient bone marrow aspirates and peripheral blood of eight patients at diagnosis or relapse. Patients were not receiving AML therapy at time of sampling. […] Blast purity ranged from 80% to 95%, as assessed by expression of CD34. […]
(§1) Cell differentiation was determined by staining of cells with anti-CD11b antibody as a general early marker of myeloid differentiation. In studies with HL60 cells, PEP005-treated and 20 nM phorbol myristate (PMA)-treated (Sigma Aldrich) cells were also assessed for their ability to phagocytose complement-coated yeast, a marker of a fully differentiated myeloid cell, as previously described (Toksoz et al, Leukemia Res 6:491-498, 1982). […] Images were captured with a SPOT2 cameria (Diagnostic Instructions, Sterling Heights, Mich.) and analyzed using Image-Pro 4.0 software (Media Cybernetics, Silver Spring, Md.).

KG1a = experiment: Differentiation (CD11b expression) in KG1a cells; format: cell-based
Description: The myeloid leukemic cell lines HL60, NB60, NB4, U937, K562 and KG1a were all grown in RPMI 1640 medium (Life Technologies, Paisley, United Kingdom) supplemented with 10% v/v fetal calf serum (Sear Laboratories International Crawley, United Kingdom), 100 U/mL penicillin, and 100 μg/mL streptomycin (Sigma Aldrich, Poole, United Kingdom) at 37° C. and 5% v/v CO2. AML blasts were isolated from patient bone marrow aspirates and peripheral blood of eight patients at diagnosis or relapse. Patients were not receiving AML therapy at time of sampling. Blasts were isolated by Ficoll density centrifugation and were cultured in serum-free insulin transferrin selenium-positive (ITS+) medium (Life Technologies) containing 300 ng/mL stem cell factor (SCF) and 10 ng/mL interleukin 3 (IL3; R and D Systems, Abingdon, United Kingdom) and antibiotics. Blast purity ranged from 80% to 95%, as assessed by expression of CD34. Normal myeloblasts were isolated from cord blood or adult mobilized peripheral blood. Briefly, CD34^+ cells were indirectly selected from the mononuclear cell preparations using antibody-coated magnetic beads (Miltenyi Biotec, United Kingdom).
as §1, with “1982). The ingestion of three or more yeasts was taken as a positive result. In normal cord blood or adult bone marrow myeloblasts, loss of CD34 was taken as a marker of differentiation. Isotype-matched controls were used and all antibodies were from DAKO (Cambridge, United Kingdom).” for “1982).”

PKC-δ = target: T1, PKC-δ (Homo sapiens, UniProt Q05655); experiment: PKC-δ cleavage to 40-kDa fragment in HL60 cells (Western blotting); format: cell-based; conditions: 20 nM PEP005 for up to 9 hours
T1 construct: endogenous in cells; host or cells: HL60
Description: PKC isoenzyme expression in leukemic cell lines was determined by Western blotting. Cells (0.5×10^6) were lysed in lysis buffer (20 mM Tris [tris(hydroxymethyl-aminomethane]-HCl, pH 7.4, containing 150 mM NaCl, 0.5 mM EDTA [ethylenediaminetertraacetic acid], 1 mM dithiothreitol, 1 mM phenymethlsulfonylfuoride, 10 μg/mL of aprotinin, leupeptin, and pepstatin A, and 1% Triton-X-100). the lysate was spun at 1000 g for 10 minutes to isolate nuclei and was then combined 1:1 with sodium dodecyl sulfate (SDS) sample buffer and boiled for 5 minutes. The extracts were then analyzed by Western blotting using antibodies to the major isoenzymes found in myeloid cells, namely PKC-α, PKC-β, PKC-δ and PKC-ξ (all purchased from Santa Cruz Biotechnology, Santa Cruz, Calif.). Blots were developed using an enhanced chemiluminescence (ECL) method (Amersham Pharmacia, Buckinghamshire, United Kingdom).

[1] = test system: EGFP-positive PKC-δ-expressing KG1a cells; experiment: Apoptosis / viability in KG1a cells transfected with EGFP-PKC-δ; format: cell-based
Description: (§2) KG1a cells were transiently transfected with EGFP-tagged mouse PKC-δ subcloned into pEGFP-N1 plasmid (available from National Cancer Institute [NCI], Bethesda, Md.) using an Amaxa nucleofection apparatus (Amaxa, Koeln, Germany). Transfection efficiency was approximately 35% as judged by fluorescence-activated cell sorter (FACS) analysis and cells were treated with PEP005 (0.2 μM-20 μM) 24 hours after transfection. Cell viability in EGFP-positive cells was assessed by analysis of cell morphology (forward scatter and side scatter profile) by FACS and loss of viability confirmed in the total cell culture by MTT assay after 3 days. Briefly, 24 hours after transfection, 2×10^4 cells were plated in five wells in 96-well plates and exposed to […] PEP005. At 72 hours, 20 μL MTT substrate at 5 mg/mL was added and plates were incubated at 37° C. After 3 hours, 150 μL media was removed and replated with 200 μL dimethyl sulfoxide (DMSO). Absorbance at an optical density (OD) of 550 nm was read on a Biotech plate reader (Amersham Pharmacia) and corrected for absorbance obtained from blank media controls.

[2] = test system: EGFP-positive KG1a cells transfected with control vector; experiment: Apoptosis in KG1a cells transfected with control vector pEGFP; format: cell-based; conditions: even at 20 μM PEP005, 3 days
Description: as §2

protein kinase C (PKC) = conditions: Kedei et al 2004; cited from earlier work

T1 sequence (Q05655 whole entry, the tested form may be a part): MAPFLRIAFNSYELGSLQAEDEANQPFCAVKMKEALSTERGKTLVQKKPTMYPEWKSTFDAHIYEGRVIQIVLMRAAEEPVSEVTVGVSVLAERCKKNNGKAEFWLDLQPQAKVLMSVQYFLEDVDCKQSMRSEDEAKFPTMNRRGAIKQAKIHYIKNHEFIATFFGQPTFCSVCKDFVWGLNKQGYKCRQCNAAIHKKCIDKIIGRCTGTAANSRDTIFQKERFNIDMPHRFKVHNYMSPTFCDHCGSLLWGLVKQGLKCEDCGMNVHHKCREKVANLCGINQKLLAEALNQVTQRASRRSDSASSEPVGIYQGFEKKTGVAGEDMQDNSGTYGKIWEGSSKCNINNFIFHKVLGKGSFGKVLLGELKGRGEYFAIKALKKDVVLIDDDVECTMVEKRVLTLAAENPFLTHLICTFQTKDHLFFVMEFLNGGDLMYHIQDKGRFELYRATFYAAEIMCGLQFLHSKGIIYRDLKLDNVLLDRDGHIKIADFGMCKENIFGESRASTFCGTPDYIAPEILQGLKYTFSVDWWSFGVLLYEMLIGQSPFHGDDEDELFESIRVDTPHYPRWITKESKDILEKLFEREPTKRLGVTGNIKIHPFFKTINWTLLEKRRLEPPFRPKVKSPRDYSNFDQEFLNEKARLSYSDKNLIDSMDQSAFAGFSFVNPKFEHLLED

C/C=C(/C)C(=O)O[C@H]1C(C)=C[C@]23C(=O)[C@@H](C=C(CO)[C@@H](O)[C@]12O)[C@H]1[C@@H](C[C@H]3C)C1(C)C [PEP005, ingenol-3-angelate]
PEP005 concentration with optimal effect, apoptosis (NB4; sub-G1 DNA by FACS, treated 5 days): 20 nM
fraction of cells entering apoptosis (kinetic study) (NB4; within the first 1 to 2 days of treatment): up to half of the cells entering apoptosis
synergy with ATRA in CD11b differentiation response (HL60; 10 nM ATRA and 20 nM PEP005 in combination, 5 days): able to synergize with ATRA
PEP005 concentration with optimal effect, CD11b expression (HL60; treated 5 days): 20 nM
differentiation response (KG1a; agent alone): did not respond
CD11b expression (KG1a; even at 20 μM PEP005): did not enter apoptosis or show CD11b expression
production of the 40-kDa fragment of PKC-δ (PKC-δ): produced rapidly
viability of total cell population by MTT assay ([1]; PEP005, after 3 days): Loss of viability was confirmed
apoptosis (forward and side scatter by FACS) ([1]; PEP005 for 3 days, 24 hours after transfection, doses commensurate with those in HL60, U937 and NB4): resulted in apoptosis
apoptosis (forward and side scatter by FACS) [2]: resistant to PEP005-induced apoptosis
activation of protein kinase C (protein kinase C (PKC)): potent activator
